Earlier results, collected in patent US11839619B2, “Methods for treatment of pediatric systemic mastocytosis” (The Regents of the University of California, priority 2019, dated 2023).

Conditions: in vivo

Q: Which common side effects does the source give for `CO[C@@H]1[C@H](N(C)C(=O)c2ccccc2)C[C@H]2O[C@]1(C)n1c3ccccc3c3c4c(c5c6ccccc6n2c5c31)C(=O)NC4` [midostaurin] here?
A: nausea, vomiting, diarrhea, and thrombocytopenia
